Where two headings read alike, the source gives them in different places.
What was measured:
Human BOAT1 = molecular target: T1, Human BOAT1 (Homo sapiens, UniProt Q695T7); experiment: hBOAT1 inhibitory test (phenylalanine uptake); format: cell-based; conditions: Human BOAT1 stable expression CHO cells, phenylalanine 0.25 mM, read-out: hB0AT1 IC50
T1 construct: expressed in transfected cells
T1 sequence (Q695T7 1-634): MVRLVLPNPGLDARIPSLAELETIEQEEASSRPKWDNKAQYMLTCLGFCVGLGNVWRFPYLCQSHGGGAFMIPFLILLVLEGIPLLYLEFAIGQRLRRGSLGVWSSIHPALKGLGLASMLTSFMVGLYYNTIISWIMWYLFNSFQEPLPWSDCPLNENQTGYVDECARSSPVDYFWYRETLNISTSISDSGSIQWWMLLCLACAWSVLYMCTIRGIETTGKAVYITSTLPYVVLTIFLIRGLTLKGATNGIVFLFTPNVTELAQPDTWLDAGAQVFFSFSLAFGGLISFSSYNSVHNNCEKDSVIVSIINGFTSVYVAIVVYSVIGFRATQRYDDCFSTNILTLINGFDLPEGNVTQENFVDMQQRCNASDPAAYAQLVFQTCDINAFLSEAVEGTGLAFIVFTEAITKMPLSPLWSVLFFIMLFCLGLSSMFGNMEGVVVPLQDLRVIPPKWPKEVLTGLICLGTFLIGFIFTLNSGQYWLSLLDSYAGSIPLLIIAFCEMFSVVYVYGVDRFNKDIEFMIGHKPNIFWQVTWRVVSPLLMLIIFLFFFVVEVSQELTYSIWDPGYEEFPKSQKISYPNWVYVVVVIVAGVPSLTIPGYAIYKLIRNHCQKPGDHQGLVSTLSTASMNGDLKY
In short: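 Human BOAT1 stably expressed in CHO cells (75000 cells/well) in HEPES-buffered NaCl/KCl/CaCl2/MgCl2 buffer with 0.01% BSA, compound at 0.5% DMSO, preincubated ≥30 min at ordinary temperature. Uptake of L-phenylalanine plus [3H]-L-phenylalanine (0.25 mM final) read by scintillation proximity; 100–200 min values analysed, non-specific uptake defined with […] reference inhibitor.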

hERG channel = molecular target: T2, hERG channel (Homo sapiens, UniProt Q12809); experiment: hERG channel inhibitory activity, whole-cell patch clamp (auto-patch clamp system); format: cell-based; conditions: read-out: hERG IC50
T2 construct: host or cells: CHO cells
T2 sequence (Q12809 whole entry): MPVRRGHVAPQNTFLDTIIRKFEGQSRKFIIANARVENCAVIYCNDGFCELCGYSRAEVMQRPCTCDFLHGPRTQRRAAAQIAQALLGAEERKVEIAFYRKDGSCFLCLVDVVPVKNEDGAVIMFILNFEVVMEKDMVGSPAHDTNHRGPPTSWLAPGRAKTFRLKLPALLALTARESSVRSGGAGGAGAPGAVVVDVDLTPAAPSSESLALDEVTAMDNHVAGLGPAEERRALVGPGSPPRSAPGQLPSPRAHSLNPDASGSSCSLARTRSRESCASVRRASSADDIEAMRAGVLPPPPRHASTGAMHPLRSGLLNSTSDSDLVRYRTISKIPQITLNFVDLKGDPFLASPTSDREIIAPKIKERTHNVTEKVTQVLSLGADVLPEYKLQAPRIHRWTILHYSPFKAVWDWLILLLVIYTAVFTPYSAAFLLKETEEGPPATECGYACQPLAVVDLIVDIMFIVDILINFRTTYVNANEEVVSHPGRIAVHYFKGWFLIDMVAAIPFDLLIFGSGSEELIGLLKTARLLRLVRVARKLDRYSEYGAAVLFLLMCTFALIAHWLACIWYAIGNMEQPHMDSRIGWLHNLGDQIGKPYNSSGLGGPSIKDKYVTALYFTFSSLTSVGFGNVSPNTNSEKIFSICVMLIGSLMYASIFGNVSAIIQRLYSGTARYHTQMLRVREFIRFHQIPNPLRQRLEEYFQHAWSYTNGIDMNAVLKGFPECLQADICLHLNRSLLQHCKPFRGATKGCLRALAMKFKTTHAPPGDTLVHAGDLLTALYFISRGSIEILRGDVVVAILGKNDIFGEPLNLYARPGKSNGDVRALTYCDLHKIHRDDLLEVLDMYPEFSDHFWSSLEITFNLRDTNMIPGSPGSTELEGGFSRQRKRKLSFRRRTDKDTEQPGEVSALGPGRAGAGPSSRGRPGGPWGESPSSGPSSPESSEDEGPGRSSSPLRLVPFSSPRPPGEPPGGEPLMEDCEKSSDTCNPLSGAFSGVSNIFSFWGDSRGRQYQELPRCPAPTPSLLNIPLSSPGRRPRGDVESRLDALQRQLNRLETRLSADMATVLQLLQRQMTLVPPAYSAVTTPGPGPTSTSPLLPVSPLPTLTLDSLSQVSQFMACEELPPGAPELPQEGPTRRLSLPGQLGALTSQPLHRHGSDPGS
Protocol: Evaluation of hERG (Human Ether-a-go-go Related Gene) Channel Inhibitory Activity
The hERG channel inhibitory activity of the compound of the present invention was measured using CHO cells (B′ SYS GmbH) forcibly expressing hERG channels involved in human rapidly active delayed rectifier potassium current (IKr) by the whole-cell patch clamp method using an auto-patch clamp system (SyncroPatch384PE).
Cell suspension, extracellular fluid, intracellular fluid, and measurement plate (NPC-384 plate) were placed in the auto-patch clamp system, and hERG current measurements were performed using the whole-cell patch clamp method. The voltage protocol was set to a holding potential of −80 mV, with a depolarizing pulse preceded by −90 mV (100 ms) and followed by −80 mV (100 ms).
The depolarizing pulse was […] (500 ms), and then the hERG peak current value obtained during the ramp phase was measured when the voltage was lowered to −80 mV over 100 ms. The protocol was applied at 5-second intervals for 5 minutes for each concentration.
SyncroPatch software (manufactured by Nanion) was used for data analysis. Four concentrations were applied incrementally for each test substance, and the average hERG Peak current value obtained from the last three stimuli of each applied concentration was used as the evaluation data. The IC50 value was calculated from the inhibition rate of the current at each concentration of each test substance relative to the pre-application value using Hill's equation (Hill equation) using the relevant software.
The same experiments were also performed using the example compounds described in WO 2023/145804 as comparative example compounds 1-4.

[1] = [3H]-L-phenylalanine uptake, radioactivity after 100 to 200 min

| Structure (SMILES) | IC50 (Human BOAT1; phenylalanine uptake) [nM] | IC50 (Human BOAT1; [1]) [nM] | IC50 (hERG channel) [nM] |
| --- | --- | --- | --- |
| O=C(O)CCCN1CCN(C(=O)CNC(=O)/C=C/c2ccc(C(F)(F)F)cc2F)C(c2ccccc2)C1 (single isomer, unassigned) [I-290, 4-[4-[2-[[(E)-3-[2-fluoro-4-(trifluoromethyl)phenyl]prop-2-enoyl]amino]acetyl]-3-phenylpiperazin-1-yl]butanoic acid] | 119 | – | > 30000 |
| C[C@@H]1CN(C(=O)CNC(=O)/C=C/c2ccc(C(F)(F)F)cc2F)[C@@H](c2ccc(F)c(F)c2)CN1CCCC(=O)O [I-349] | 93 | – | > 30000 |
| O=C(O)CCCN1CCN(C(=O)CNC(=O)/C=C/c2ccc(C(F)(F)F)cc2F)[C@@H](C(F)(F)F)C1 [I-243] | – | 3700 | > 30000 |
| Cc1cccc([C@H]2CN(CCCC(=O)O)[C@H](C)CN2C(=O)CNC(=O)/C=C/c2ccc(C(F)(F)F)cc2F)c1 [I-385] | – | 70 | 21000 |
| O=C(O)CCCN1CCN(C(=O)CNC(=O)/C=C/c2ccc(C(F)(F)F)cc2F)[C@H](C(F)(F)F)C1 [I-244] | – | 613 | > 30000 |

More lines, main results first:

| IC50 (Human BOAT1; phenylalanine uptake) [nM] | IC50 (Human BOAT1; [1]) [nM] | Structure (SMILES) | IC50 (hERG channel) [nM] |
| --- | --- | --- | --- |
| – | 165 | O=C(O)CSc1nc2c(s1)CN(C(=O)CNC(=O)/C=C/c1ccc(C(F)(F)F)cc1)CC2 [I-215] | > 30000 |
| 178 | – | CC(C(=O)O)c1ccc2c(c1)CCN(C(=O)CNC(=O)/C=C/c1ccc(C(F)(F)F)cc1)C2 (single isomer, unassigned) [I-287, 2-[2-[2-[[(E)-3-[4-(trifluoromethyl)phenyl]prop-2-enoyl]amino]acetyl]-3,4-dihydro-1H-isoquinolin-6-yl]propanoic acid] | > 30000 |
| – | 127 | O=C(O)Cc1ccc2c(c1)CCN(C(=O)CNC(=O)/C=C/c1ccc(Br)cc1)C2 [I-184] | > 30000 |
| – | 101 | O=C(O)Cc1cc2c(cc1Cl)CN(C(=O)CNC(=O)/C=C/c1ccc(C(F)(F)F)cc1)CC2 [I-226] | > 30000 |
| – | 30 | O=C(O)CCCN1CCN(C(=O)CNC(=O)/C=C/c2ccc(C(F)(F)F)cc2F)[C@@H](c2ccc(Br)cc2)C1 [I-232] | 19300 |
| – | 146 | O=C(O)CCc1nn2c(c1Br)CN(C(=O)CNC(=O)/C=C/c1ccc(S(F)(F)(F)(F)F)cc1)CC2 [I-153] | > 30000 |
| – | 91 | CC(C(=O)O)c1ccc2c(c1)CCN(C(=O)CNC(=O)/C=C/c1ccc(C(F)(F)F)cc1)C2 (racemic) [I-171] | > 30000 |
